These results are taken from US8609836B2, “4-aryl-2-anilino-pyrimidines” (Janssen Pharmaceutica NV, priority 2008, dated 2013).

In one assay the target is PLK4 (h) (Homo sapiens, UniProt O00444). Briefly: PLK-4 human kinase inhibition, scintillation proximity assay (SPA). The assay is classed as biochemical. The conditions noted are these: read-out: PLK4 pIC50 (converted). On the technique in general: In a scintillation proximity assay essentially only radioactivity close to the scintillant gives light.
The next assay concerns the target AuroraB (h) (Homo sapiens, UniProt Q96GD4). The assay is described as follows: Aurora-B human kinase inhibition, SPA. The format is biochemical. The note with it: read-out: AuroraB pIC50 (converted). In short, it runs like this: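 AuroraB (0.5 μg/ml) phosphorylates 3 μM biotin-peptide using 0.5 μM ATP spiked with 33P-ATP in Hepes pH 7.5 with 3 mM MgCl2 and MnCl2, for 60 min at room temperature. EDTA stop solution carries streptavidin scintillant beads, and the captured radiolabel is imaged.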

The target of another assay is GSK3β (h) (Homo sapiens, UniProt P49841). Briefly: GSK-3β human kinase inhibition, SPA. The assay is classed as biochemical. The conditions noted are these: read-out: GSK3b pIC50 (converted). In short, it runs like this: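 Radiometric: 33P-labelled peptide captured on streptavidin SPA beads after EDTA stop and imaged on Leadseeker. Reaction ran 1 h at RT, 1 μM cold ATP with 2 nM [γ-33P]ATP, 1 μM biotin-peptide substrate, human GSK3β 1 μg/ml, pH 7.4 Tris buffer.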

A further assay has as its target CDK1/CyclinB (h) (Homo sapiens, UniProt P06493). The assay is described as follows: CDK1/CyclinB human kinase inhibition, Invitrogen's FRET assay (Z'lyte). The assay is classed as biochemical. The conditions noted are these: read-out: CDK1 pIC50 (converted). The method in brief: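 Read-out is the 460 nm/538 nm emission ratio (390 nm excitation) after a 60 min protease development step. Before that, 10 μM ATP and 2 μM Z'lyte Ser/Thr peptide 12 react 60 min at room temperature with 0.2 μg/ml human CDK1/CyclinB in Hepes pH 7.5 containing MgCl2, EGTA and Brij-35.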

The target in the next assay is PLK3 (h) (Homo sapiens, UniProt Q9H4B4). The assay is described as follows: PLK3 human kinase inhibition, SPA. The assay is classed as biochemical. The note with it: read-out: PLK3 pIC50 (converted). In short, it runs like this: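 Radiometric scintillation proximity format at pH 8.0 (Hepes, MnCl2, DTT). The 2 μM biotin-peptide substrate is phosphorylated by PLK3 (h) (30 μg/ml) using 0.1 μM ATP traced with 33P, for 20 min at room temperature. EDTA stop; phosphopeptide captured on streptavidin beads and imaged.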

The subject of a further assay is HCT-116. Briefly: Cellular proliferation assay (Alamar blue), HCT-116. The assay is classed as cell-based. The conditions noted are these: Homo sapiens, 10% FCS, 72 hours with compound, Alamar blue 4 h. In short, it runs like this:
(§1)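 Alamar blue fluorescence (544/590 nm) measured viable cells after 72 h compound exposure; dye incubation 4 h (HCT-116), 6 h (U87-MG) or 24 h (A2780, MDA-MB-231). Cells pre-seeded 24 h, grown in 10% FCS, 37° C, 5% CO2; effect expressed relative to control cells.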

For another assay, the system named is H1299. The assay is described as follows: Cellular proliferation assay (Alamar blue), H1299. The assay is classed as cell-based. The conditions noted are these: Homo sapiens, NCI-H1299; 10% FCS; 72 hours with compound; Alamar blue 4 h. The method in brief: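 This proliferation assay on NCI-H1299 cells used an initial 24-hour compound-free incubation after seeding, followed by 72 hours of compound treatment with 10% FCS serum at 37° C. and 5% (v/v) CO2. Viable cells were quantified by a 4 h Alamar blue incubation and fluorescent plate reading at 544 nm/590 nm, and effects were expressed relative to control cells.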

For the next assay, the system named is U87-MG. The assay is described as follows: Cellular proliferation assay (Alamar blue), U87-MG. The note with it: Homo sapiens, U-87 MG; 10% FCS; 72 hours with compound; Alamar blue 6 h; read-out: U87-MG (cellular proliferation assay, Table 4) (converted). The assay is classed as cell-based. In short, it runs like this:
as §1
For orientation: The colour change of resazurin is a common sign of viable cells or microbes.

Another assay has as its system A2780. The assay is described as follows: Cellular proliferation assay (Alamar blue), A2780. The note with it: Homo sapiens, 10% FCS, 72 hours with compound, Alamar blue 24 h, read-out: A2780 (cellular proliferation assay, Table 4) (converted). The format is cell-based. In short, it runs like this: as §1

AuroraB (h), sequence (Q96GD4 whole entry): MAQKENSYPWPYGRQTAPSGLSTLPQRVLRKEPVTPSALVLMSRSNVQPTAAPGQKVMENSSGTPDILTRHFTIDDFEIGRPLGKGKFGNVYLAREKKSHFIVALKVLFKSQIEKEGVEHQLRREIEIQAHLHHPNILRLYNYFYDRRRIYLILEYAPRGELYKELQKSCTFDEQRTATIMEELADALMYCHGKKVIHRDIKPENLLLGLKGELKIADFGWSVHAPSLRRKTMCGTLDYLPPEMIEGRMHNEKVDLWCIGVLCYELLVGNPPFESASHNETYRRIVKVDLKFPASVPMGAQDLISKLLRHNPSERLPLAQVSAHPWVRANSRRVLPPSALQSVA
CDK1/CyclinB (h), sequence (P06493 whole entry): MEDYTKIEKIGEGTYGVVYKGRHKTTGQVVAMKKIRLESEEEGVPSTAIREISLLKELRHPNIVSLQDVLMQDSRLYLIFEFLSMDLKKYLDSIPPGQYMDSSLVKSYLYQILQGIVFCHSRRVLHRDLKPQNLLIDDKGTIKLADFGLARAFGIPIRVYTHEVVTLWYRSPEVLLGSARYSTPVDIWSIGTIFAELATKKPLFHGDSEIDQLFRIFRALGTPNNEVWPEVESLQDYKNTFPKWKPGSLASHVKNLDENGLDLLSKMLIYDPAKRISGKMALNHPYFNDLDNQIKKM
CDK1/CyclinB (h), sequence (P14635 whole entry partner): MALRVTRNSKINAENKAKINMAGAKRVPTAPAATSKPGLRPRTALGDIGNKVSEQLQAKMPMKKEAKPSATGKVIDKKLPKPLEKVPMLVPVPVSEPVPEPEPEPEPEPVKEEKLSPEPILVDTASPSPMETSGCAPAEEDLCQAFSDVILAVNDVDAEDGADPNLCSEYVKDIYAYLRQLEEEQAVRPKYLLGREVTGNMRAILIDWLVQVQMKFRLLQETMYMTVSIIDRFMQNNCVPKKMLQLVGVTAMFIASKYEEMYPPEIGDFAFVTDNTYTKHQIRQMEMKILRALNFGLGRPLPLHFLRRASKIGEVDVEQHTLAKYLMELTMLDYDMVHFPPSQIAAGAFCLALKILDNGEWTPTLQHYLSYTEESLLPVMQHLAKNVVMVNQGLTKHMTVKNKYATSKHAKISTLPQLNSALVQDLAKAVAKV
GSK3β (h), sequence (P49841 whole entry): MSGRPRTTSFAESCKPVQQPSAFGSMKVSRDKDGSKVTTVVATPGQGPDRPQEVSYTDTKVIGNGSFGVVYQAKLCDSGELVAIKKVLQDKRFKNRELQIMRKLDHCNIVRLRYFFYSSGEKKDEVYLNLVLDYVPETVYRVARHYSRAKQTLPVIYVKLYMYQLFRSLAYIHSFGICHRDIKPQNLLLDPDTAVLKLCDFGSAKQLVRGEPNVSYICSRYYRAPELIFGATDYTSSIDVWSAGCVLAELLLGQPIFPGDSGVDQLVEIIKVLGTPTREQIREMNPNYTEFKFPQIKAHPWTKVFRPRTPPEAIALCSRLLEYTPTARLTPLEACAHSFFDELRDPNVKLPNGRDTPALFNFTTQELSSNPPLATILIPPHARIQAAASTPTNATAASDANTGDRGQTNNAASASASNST
PLK3 (h), sequence (Q9H4B4 whole entry): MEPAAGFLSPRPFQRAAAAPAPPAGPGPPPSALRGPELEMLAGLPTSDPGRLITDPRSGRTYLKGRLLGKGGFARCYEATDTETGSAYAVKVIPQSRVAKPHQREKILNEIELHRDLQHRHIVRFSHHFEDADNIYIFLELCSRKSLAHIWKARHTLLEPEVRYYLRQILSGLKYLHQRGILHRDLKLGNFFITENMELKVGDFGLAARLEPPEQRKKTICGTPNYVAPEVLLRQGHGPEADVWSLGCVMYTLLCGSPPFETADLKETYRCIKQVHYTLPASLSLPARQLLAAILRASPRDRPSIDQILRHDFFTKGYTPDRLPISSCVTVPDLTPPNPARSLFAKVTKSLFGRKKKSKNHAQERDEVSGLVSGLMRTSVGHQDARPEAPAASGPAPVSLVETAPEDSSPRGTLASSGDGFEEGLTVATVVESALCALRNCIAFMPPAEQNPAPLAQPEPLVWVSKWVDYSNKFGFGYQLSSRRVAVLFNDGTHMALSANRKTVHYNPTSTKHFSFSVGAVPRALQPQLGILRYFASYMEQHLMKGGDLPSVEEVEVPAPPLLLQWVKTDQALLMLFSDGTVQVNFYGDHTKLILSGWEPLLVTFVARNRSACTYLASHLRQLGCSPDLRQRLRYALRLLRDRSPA
PLK4 (h), sequence (O00444 whole entry): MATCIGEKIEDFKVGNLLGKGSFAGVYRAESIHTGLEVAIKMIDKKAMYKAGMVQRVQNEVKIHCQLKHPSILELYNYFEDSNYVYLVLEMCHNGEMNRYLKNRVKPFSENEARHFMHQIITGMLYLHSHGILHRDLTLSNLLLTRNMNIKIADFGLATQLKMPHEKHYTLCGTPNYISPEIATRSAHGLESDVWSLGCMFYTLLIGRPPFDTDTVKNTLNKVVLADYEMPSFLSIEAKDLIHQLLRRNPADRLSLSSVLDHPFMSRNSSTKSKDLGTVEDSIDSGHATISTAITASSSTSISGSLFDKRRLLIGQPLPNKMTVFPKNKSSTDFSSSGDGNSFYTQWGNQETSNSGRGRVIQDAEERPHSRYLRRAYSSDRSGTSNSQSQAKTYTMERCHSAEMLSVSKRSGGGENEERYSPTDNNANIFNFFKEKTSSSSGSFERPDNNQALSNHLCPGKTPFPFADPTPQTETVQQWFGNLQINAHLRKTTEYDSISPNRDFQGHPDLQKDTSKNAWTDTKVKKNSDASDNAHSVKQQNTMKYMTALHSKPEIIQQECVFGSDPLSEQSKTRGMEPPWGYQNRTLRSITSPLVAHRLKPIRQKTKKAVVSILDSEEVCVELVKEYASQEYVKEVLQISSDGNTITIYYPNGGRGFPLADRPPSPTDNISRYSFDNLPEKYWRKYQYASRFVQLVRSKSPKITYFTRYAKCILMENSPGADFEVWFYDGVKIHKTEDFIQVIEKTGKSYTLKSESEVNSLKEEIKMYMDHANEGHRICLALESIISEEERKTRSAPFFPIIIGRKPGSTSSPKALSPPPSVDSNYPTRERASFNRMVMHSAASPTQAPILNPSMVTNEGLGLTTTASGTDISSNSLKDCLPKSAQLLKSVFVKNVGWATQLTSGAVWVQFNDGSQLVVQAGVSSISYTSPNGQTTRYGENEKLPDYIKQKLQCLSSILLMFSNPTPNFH

Consider `O=C1CN2CCN(CC2)Cc2cc(ccc2N2CCOCC2)Nc2nccc(n2)-c2ccc(cc2)OCCN1` [Compound 9], for which the IC50 on PLK4 (h) was 0.417 µM; on AuroraB (h), above 10 µM; at GSK3β (h), 1.45 µM; at CDK1/CyclinB (h), above 10 µM; on PLK3 (h) it was above 10 µM; with HCT-116 it was 7.76 µM. Further, the values for the IC50 with H1299, with U87-MG and in the assay on A2780 were above 10 µM, 1.55 µM and above 10 µM, respectively.
`COCCNC(=O)c1ccc2cc1CN1CCC[C@H]1C(=O)NCc1cccc(c1)-c1ccnc(n1)N2` [Compound 40]: the IC50 was 0.288 µM on PLK4 (h); above 10 µM at AuroraB (h); 0.162 µM on GSK3β (h); 3.09 µM on CDK1/CyclinB (h); above 10 µM on PLK3 (h); 2.19 µM in the assay with HCT-116. In addition, the IC50 with H1299 is above 10 µM; in the assay on U87-MG, 2.29 µM; in the assay on A2780 it was 4.68 µM.
Take `COCCNCc1cc2cc(c1)Nc1nccc(n1)-c1cccc(c1)CNC(=O)[C@@H]1CCCN1C2` [Compound 33]: the IC50 on PLK4 (h) is 0.178 µM; on AuroraB (h) it was 8.32 µM; on GSK3β (h) it was 0.145 µM; on CDK1/CyclinB (h) it was 0.537 µM; on PLK3 (h), above 10 µM; in the assay on HCT-116, 0.126 µM. The IC50 with H1299 was 1.1 µM; in the assay with U87-MG, 0.0513 µM; with A2780 it was 0.224 µM.
In the case of `CN(C)Cc1cc2cc(c1)Nc1nccc(n1)-c1cccc(c1)CNC(=O)[C@@H]1CCCN1C2` [Compound 30], the IC50 on PLK4 (h) was 0.162 µM; at AuroraB (h), above 10 µM; on GSK3β (h), 0.024 µM; on CDK1/CyclinB (h), 0.269 µM; at PLK3 (h), above 10 µM; with HCT-116, 0.107 µM. The results for the IC50 in the assay on H1299, in the assay with U87-MG and in the assay with A2780 were 0.191 µM, 0.145 µM and 0.174 µM, respectively.
Regarding `CN1CCNC(=O)[C@@H]2CCCN2Cc2cc(Br)cc(c2)Nc2nccc(n2)-c2ccc(cc2)C1` [Compound 155], the IC50 was 0.832 µM on PLK4 (h); above 10 µM at AuroraB (h); 2.34 µM at GSK3β (h); above 10 µM on CDK1/CyclinB (h); above 10 µM on PLK3 (h); above 10 µM with HCT-116. Besides, the IC50 with H1299, in the assay with U87-MG and with A2780 was above 10 µM throughout.
Turning to `O=C1NCCCNCc2ccc(cc2)-c2ccnc(n2)Nc2ccc(N3CCOCC3)c(c2)CN2C[C@H](O)C[C@@H]12` [Compound 169], the IC50 at PLK4 (h) is 3.89 µM; on AuroraB (h), above 10 µM; at GSK3β (h), above 10 µM; on CDK1/CyclinB (h), above 10 µM; at PLK3 (h), above 10 µM; in the assay on HCT-116, above 10 µM. The IC50 in the assay with H1299, in the assay with U87-MG and with A2780 was above 10 µM in each case.
As for `COc1ccc2cc1CN(C)CCCNC(=O)[C@@H]1CCCN1Cc1cccc(c1)Nc1nccc-2n1` [Compound 180], the IC50 on PLK4 (h), at AuroraB (h), at GSK3β (h), on CDK1/CyclinB (h), on PLK3 (h) and in the assay on HCT-116 was above 10 µM each time. Further, the IC50 in the assay on H1299, in the assay with U87-MG and in the assay on A2780 was above 10 µM each time.
As for `COc1ccc2cc1CN(C)CCCNC(=O)C1CCN(CC1)Cc1cc(Br)cc(c1)Nc1nccc-2n1` [Compound 76], the IC50 on PLK4 (h) is 3.24 µM; at AuroraB (h) it was 5.5 µM; at GSK3β (h) it was above 10 µM; on CDK1/CyclinB (h), above 10 µM; on PLK3 (h) it was above 10 µM; in the assay on HCT-116, above 10 µM. For the same compound, the results for the IC50 in the assay on H1299, with U87-MG and in the assay on A2780 were above 10 µM, 7.24 µM and above 10 µM, respectively.
With `COc1ccc2cc1CN(C)CCCNC(=O)[C@@H]1CCCN1Cc1cc(cc(NC(C)C)c1)Nc1nccc-2n1` [Compound 164], the IC50 on PLK4 (h) is 2.63 µM; on AuroraB (h) it was above 10 µM; at GSK3β (h) it was above 10 µM; on CDK1/CyclinB (h) it was above 10 µM; at PLK3 (h), above 10 µM; with HCT-116, above 10 µM. Further, the IC50 in the assay with H1299 was above 10 µM; in the assay on U87-MG it was 2.09 µM; in the assay on A2780 it was above 10 µM.
As for `O=C1NCCCOc2ccc(cc2)-c2ccnc(n2)Nc2ccc(N3CCOCC3)c(c2)CN2CCC1CC2` [Compound 92], the IC50 was 0.398 µM at PLK4 (h); above 10 µM at AuroraB (h); 1.32 µM at GSK3β (h); 1.02 µM on CDK1/CyclinB (h); above 10 µM at PLK3 (h); 0.309 µM with HCT-116. Also, the IC50 is 0.832 µM with H1299, 0.178 µM in the assay with U87-MG and 0.525 µM in the assay on A2780.
Consider `CC(C)Nc1cc2cc(c1)Nc1nccc(n1)-c1ccc(cc1)CN(C)CCNC(=O)[C@@H]1CCCN1C2` [Compound 153], for which the IC50 at PLK4 (h) is 0.776 µM; on AuroraB (h), above 10 µM; at GSK3β (h), 3.24 µM; on CDK1/CyclinB (h), 2.82 µM; on PLK3 (h) it was above 10 µM; in the assay on HCT-116, 5.5 µM. The results for the IC50 with H1299, with U87-MG and in the assay with A2780 were above 10 µM, 5.75 µM and above 10 µM, respectively.
As for `COc1ccc2cc1CN(C)CCNC(=O)C1CCN(CC1)Cc1cc(cc(NC(C)C)c1)Nc1nccc-2n1` [Compound 75], the IC50 is 3.09 µM on PLK4 (h); above 10 µM at AuroraB (h); above 10 µM at GSK3β (h); above 10 µM at CDK1/CyclinB (h); above 10 µM at PLK3 (h); 7.24 µM with HCT-116. Further, the IC50 in the assay with H1299 is above 10 µM; with U87-MG it was 5.13 µM; with A2780 it was above 10 µM.
In the case of `COc1ccc2cc1CN(C)CCNC(=O)CN1CCN(CC1)Cc1cccc(c1)Nc1nccc-2n1` [Compound 147], the IC50 on PLK4 (h), at AuroraB (h), on GSK3β (h), at CDK1/CyclinB (h), at PLK3 (h) and with HCT-116 was above 10 µM each time. For the same compound, the IC50 in the assay with H1299, with U87-MG and in the assay on A2780 was above 10 µM throughout.
For the compound `COc1ccc2cc1CN(C)CCCNC(=O)[C@@H]1CCCN1Cc1cc(cc(N3CCOCC3)c1)Nc1nccc-2n1` [Compound 179], the IC50 at PLK4 (h), on AuroraB (h), on GSK3β (h), at CDK1/CyclinB (h), on PLK3 (h) and in the assay on HCT-116 was above 10 µM in each case. Further, the IC50 with H1299, in the assay on U87-MG and with A2780 was above 10 µM throughout.
In the case of `CC(C)Nc1cc2cc(c1)Nc1nccc(n1)-c1ccc(cc1)CN(C)CCNC(=O)C1CCN(CC1)C2` [Compound 61], the IC50 on PLK4 (h) is 0.724 µM; on AuroraB (h), 8.32 µM; at GSK3β (h), 7.59 µM; on CDK1/CyclinB (h), above 10 µM; at PLK3 (h), above 10 µM; in the assay on HCT-116, 7.94 µM. Further, the IC50 with H1299 was above 10 µM; in the assay on U87-MG it was 5.62 µM; in the assay on A2780, 6.31 µM.
As for `O=C1NCCCc2cc(ccn2)-c2ccnc(n2)Nc2ccc(N3CCOCC3)c(c2)CN2CCCC12` (stereo not drawn) [Compound 48], the IC50 at PLK4 (h) was 0.661 µM; at AuroraB (h), above 10 µM; on GSK3β (h), 9.12 µM; on CDK1/CyclinB (h), above 10 µM; at PLK3 (h), above 10 µM; in the assay with HCT-116 it was above 10 µM. In addition, the IC50 in the assay on H1299, in the assay with U87-MG and in the assay on A2780 was above 10 µM in each case.
`O=C1NCCCOc2cccc(c2)-c2ccnc(n2)Nc2ccc(N3CCOCC3)c(c2)CN2CCC[C@@H]12` [Compound 96]: the IC50 is 0.398 µM at PLK4 (h); above 10 µM on AuroraB (h); 2.82 µM at GSK3β (h); above 10 µM at CDK1/CyclinB (h); above 10 µM on PLK3 (h); 5.37 µM with HCT-116. Moreover, the IC50 was above 10 µM with H1299, 4.17 µM in the assay with U87-MG and 6.46 µM with A2780.
